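Protocol summary: plate cells (96-well), add compound at 5 concentrations, incubate 48 h, interpolate endpoints linearly. GI50 marks 50% less growth. Definition used: TGI = concentration required for complete inhibition of growth.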

Holding throughout (test): NCI anticancer screen, dose series, 48 h
Experiment [1] deals with LOX IMVI melanoma.
Experiment [2] concerns IGROV1 ovarian.
In experiment [3] the test system is RPMI-8226 leukemia.
The test system of experiment [4] is HOP-62 NSCLC.
The test system of experiment [5] is UO-31 renal.
Experiment [6] has as its system NCI-H522 lung.
Experiment [7] has as its system ACHN renal.
The subject of experiment [8] is EKVX NSCLC.
Experiment [9] has as its system UACC-62 melanoma.
Experiment [10] relates to UACC-257 melanoma.
The subject of experiment [11] is SK-MEL-28 melanoma.
For experiment [12], the system named is MCF7 breast.
In experiment [13] the test system is DU-145 prostate.
The subject of experiment [14] is PC-3 prostate.
Experiment [15] deals with HS 578T breast.
The subject of experiment [16] is BT-549 breast.
Experiment [17] deals with MDA-MB-231 breast.

As to `C=CCNC(=O)N(CCCC(NC(C)=O)C(=O)NCc1ccccc1)Cc1ccccc1` (stereo unspecified), the TGI in experiment [1], in experiment [2], in experiment [3], in [4], in experiment [5] and in [6] was over 100 µM in each case. Moreover, the TGI in [7], in experiment [8], in experiment [9], in experiment [10] and in experiment [11] was over 100 µM each time.

For the compound `CCOc1ccc(/C(Cl)=C(\C=O)c2ccc(OC)c(OC)c2)cc1OCC`, the TGI in experiment [1], in experiment [2], in [3], in experiment [4], in [5] and in experiment [6] was over 100 µM throughout. Also, the TGI in experiment [7], in [8], in experiment [9], in experiment [10] and in experiment [11] was over 100 µM each time.

Regarding `CC[C@@H]1CC[C@@H]2[C@H](CC[C@]3(C)[C@@H](OS(=O)(=O)c4ccc(C)cc4)CC[C@@H]23)[C@H]1COS(=O)(=O)c1ccc(C)cc1`, the TGI in experiment [1], in experiment [2], in experiment [12], in experiment [13], in experiment [3] and in [5] was over 100 µM throughout. The TGI in [7], in experiment [8], in experiment [10], in [14], in experiment [15] and in experiment [11] was over 100 µM in each case. Moreover, the TGI in [16] is over 100 µM.

On to `CC1CN(c2ccc(Cl)cc2)CC(C)OC(=O)O1` (stereo unspecified), for which the TGI in experiment [1], in experiment [2], in experiment [3], in experiment [4], in [5] and in [6] was over 100 µM each time. The TGI in experiment [7], in experiment [8], in experiment [9], in experiment [10] and in [11] was over 100 µM in each case.

As to `CC(C)CC(NC(=O)OC(C)(C)C)C(=O)Nc1ccc(Nc2nc(F)nc(-c3c4ccccc4c4n3CCS4)n2)cc1` (stereo unspecified), the TGI in experiment [2] stood at 42.3 µM; in [3], 58.6 µM; in experiment [4], 37.2 µM; in [5] it was 34.8 µM; in experiment [6], 29.2 µM; in [7], 39.2 µM. Moreover, the TGI in experiment [8] turned out to be 37.8 µM; in [9], 31.9 µM; in experiment [10], 48.3 µM; in experiment [11], 42.7 µM.

Consider `COc1ccc(N=Cc2ccc(N(CCC#N)S(=O)(=O)c3ccccc3)cc2)cc1`, for which the TGI in [1], in [2], in experiment [3], in experiment [4], in experiment [5] and in [6] was over 100 µM each time. Besides, the TGI in experiment [7], in experiment [8], in experiment [9], in [10] and in experiment [11] was over 100 µM in each case.

In the case of `CCCCCCCCCCCCCCCCOCC(CC(F)(F)P(=O)(OCC)OCC)OC(C)=O` (stereo unspecified), the TGI in experiment [2] was 21.8 µM; in experiment [12], 33.5 µM; in experiment [13], 28.8 µM; in experiment [3], over 100 µM; in [5], 29.5 µM; in experiment [6] it was 31.2 µM. The TGI in [7] came out at 27.3 µM; in experiment [8], 44.9 µM; in experiment [9], 30.2 µM; in experiment [10], 33 µM; in [14], 26.7 µM; in [11], 32.4 µM. Besides, the values for the TGI in experiment [16] and in experiment [17] were 28.8 µM and 30.1 µM, respectively.

For the compound `CN1CNc2nc(N)n(C)c(=O)c2C1`, the TGI in experiment [2], in experiment [13], in [5], in [6], in experiment [7] and in experiment [8] was over 10 µM each time. In addition, the TGI in experiment [9], in [10] and in experiment [16] was over 10 µM in each case.

For the compound `COc1ccc(CNC(=O)NCn2cc(-c3ccccc3)nn2)cc1`, the TGI in [1], in experiment [2], in experiment [12], in [13], in experiment [3] and in experiment [4] was over 100 µM in each case. Also, the TGI in [6], in [7], in [8], in experiment [10], in experiment [14] and in experiment [11] was over 100 µM throughout. The TGI in [16] and in [17] was over 100 µM throughout.

`COC(=O)C(C#CCCCCC#CC(NC(=O)OCc1ccccc1)(C(=O)OC)C(F)(F)F)(NC(=O)OCc1ccccc1)C(F)(F)F` (stereo unspecified): the TGI in experiment [1], in [2], in experiment [3], in experiment [4], in [5] and in experiment [6] was over 100 µM throughout. Also, the TGI in [7], in [8], in experiment [9], in experiment [10] and in experiment [11] was over 100 µM in each case.

`Cc1ccc(N2C(=O)CS/C2=C(\C#N)c2nc3ccccc3[nH]2)cc1`: the TGI in experiment [1], in [2], in experiment [3], in experiment [4], in experiment [5] and in experiment [6] was over 100 µM in each case. Also, the TGI was over 100 µM in [7]; over 100 µM in experiment [8]; 82.7 µM in [9]; over 100 µM in [10]; over 100 µM in [11].

Consider `Cc1ccc([N+](=O)[O-])cc1NC(=O)/C(=N/NC(=S)NN)C1SC(=S)NC1=O` (stereo unspecified), for which the TGI in [1], in experiment [2], in experiment [3], in experiment [4], in experiment [5] and in experiment [6] was over 100 µM each time. Also, the TGI in experiment [7], in experiment [8], in experiment [9], in experiment [10] and in [11] was over 100 µM throughout.

As for `C=CCOC(=O)NC1C(OC(C)[C@@H](NC(=O)OCc2ccccc2)C(=O)OC(C)(C)C)OC(COC(C)=O)C(OC(C)=O)C1OC(C)=O` (stereo partly specified), the TGI in experiment [1], in experiment [2], in [12], in [13], in [3] and in [4] was over 100 µM in each case. In addition, the TGI was 47.3 µM in experiment [5]; over 100 µM in experiment [6]; over 100 µM in [7]; over 100 µM in experiment [8]; over 100 µM in [9]; over 100 µM in [10]. Also, the TGI in experiment [14] was over 100 µM; in experiment [15] it was over 100 µM; in experiment [11], over 100 µM; in experiment [17] it was 96.2 µM.

On to `N#C/C(c1nc2ccccc2[nH]1)=c1\s/c(=C/c2ccc(Cl)cc2)c(=O)n1-c1ccccc1`, for which the TGI in experiment [1], in [2], in experiment [3], in [4], in [5] and in experiment [6] was over 100 µM each time. In addition, the TGI in [7], in experiment [8], in [9], in [10] and in [11] was over 100 µM in each case.

On to `CCC12CCCN(Cc3ccccc3)C1c1c(n(C)c3ccccc13)C(C(=O)OC)C2` (stereo unspecified), for which the TGI in experiment [1] was over 239 µM; in experiment [2], over 239 µM; in experiment [3], over 239 µM; in [4], over 239 µM; in [6] it was 127 µM; in [7], over 239 µM. The TGI in experiment [8] was over 239 µM; in experiment [9], over 239 µM; in [10] it was 191 µM; in experiment [11], over 239 µM.

For `Nc1nc(SCc2ccc([N+](=O)[O-])cc2)nc2c1ncn2C1OC(CO)C(O)C1O` (stereo unspecified), the TGI in experiment [1], in [2], in [3], in experiment [4], in [5] and in experiment [6] was over 100 µM throughout. The TGI in experiment [7], in experiment [8], in [10] and in [11] was over 100 µM each time.

In the case of `O=S(Nc1ccccc1)c1cccc(Cl)c1` (stereo unspecified), the TGI in [1], in experiment [2], in experiment [12], in experiment [13], in experiment [3] and in [4] was over 100 µM each time. Besides, the TGI in experiment [5], in [6], in [7], in experiment [8], in experiment [10] and in experiment [14] was over 100 µM each time. Besides, the TGI in experiment [15], in experiment [11] and in [17] was over 100 µM each time.

`COc1cccc([C@H]2C/C(=N\NC(=O)C(=O)N[C@@H](C)c3ccccc3)c3ccccc3N2)c1`: the TGI in [1] was over 100 µM; in experiment [12] it was over 100 µM; in [13], 15.6 µM; in [3], 0.0503 µM; in experiment [5] it was over 100 µM; in experiment [7] it was over 100 µM. Besides, the TGI in [8] is over 100 µM; in experiment [9] it was 0.0962 µM; in [10] it was over 100 µM; in experiment [14], over 100 µM; in experiment [15], 0.088 µM; in [11] it was over 100 µM. In addition, in [17], the TGI was 41.4 µM. Moreover, the GI50 is 0.0306 µM in experiment [12] and 0.0835 µM in experiment [4].

For `CN1c2ccccc2N(C(=O)c2ccc(Cl)cc2)C(CC(=O)O)c2cccn21` (stereo unspecified), the TGI in experiment [1], in experiment [2], in experiment [3], in experiment [4], in [5] and in experiment [6] was over 100 µM each time. For the same compound, the TGI in experiment [7], in experiment [8], in experiment [9], in experiment [10] and in experiment [11] was over 100 µM each time.

`COc1ccc(-n2c(=O)[nH]n(C(C)=O)c2=O)cc1`: the TGI in experiment [1], in experiment [2], in [12], in [13], in experiment [3] and in [5] was over 100 µM throughout. Also, the TGI in experiment [6], in experiment [7], in experiment [8], in experiment [9], in experiment [10] and in [14] was over 100 µM throughout. For the same compound, the TGI in experiment [15], in experiment [11] and in experiment [17] was over 100 µM throughout.

Turning to `CCOC(=O)/C=C/n1c2ccccc2c(=O)c2ccccc21`, the TGI in [1], in experiment [2], in [3], in [4], in experiment [5] and in [6] was over 100 µM each time. In addition, the TGI in [7], in experiment [8], in experiment [9], in [10] and in experiment [11] was over 100 µM each time.
